Measurements taken from patent publication US20070155780A1, “Stabilized composition containing 4-amino-5-chloro-n-[(1r, 3r, 5s)-8-methyl-8-azabicyclo[3.2.1]oct-3-y1]-2-[1-methylbut-2-ynyloxy]benzamide” (priority 2004, published 2007).

Test: Compatibility test of the active ingredient with pharmaceutical additives (storage, HPLC)
Type: physicochemical
Details: 60° C., relative humidity 75%, one week
Procedure: Specifically, 4-amino-5-chloro-N-[(1R,3r,5S)-8-methyl-8-azabicyclo[3.2.1]oct-3-yl]-2-[(1S)-1-methylbut-2-ynyloxy]benzamide was admixed with various pharmaceutical additives in weight proportions in Table 2, the resulting compositions were weighed in transparent glass bottles, and were stored at 60° C., relative humidity of 75% for one week while keeping the lid open. Various fillers, disintegrators, binders, lubricants, and others were used as the pharmaceutical additives. As a control, 4-amino-5-chloro-N-[(1R,3r,5S)-8-methyl-8-azabicyclo[3.2.1]oct-3-yl]-2-[(1S)-1-methylbut-2-ynyloxy]benzamide alone was weighed in a transparent glass bottle and was stored under the above-mentioned conditions. The samples before and after storage were evaluated using high-performance liquid chromatography (HPLC). The stabilities of the samples were evaluated based on the total amount of decomposition products (%), the amount (%) of main decomposition product at a retention time (RRT) of 1.37, and the residual ratio of content (%) of the active ingredient after storage. […] Total amount of decomposition products (%)=Total sum of the amounts of individual decomposition products Residual ratio of content (%)=[(Content after storage)/(Content before storage)]×100 (HPLC condition)
The respective samples before and after storage were mixed with an extraction medium, stirred for sixty minutes, and centrifuged at 3000 rpm for fifteen minutes. The resulting supernatants were assayed by liquid chromatography to thereby determine the amounts of decomposition products and the content of the active ingredient. • Extraction medium: 30% by volume aqueous solution of acetonitrile • Detector: Ultraviolet absorptiometer • Mobile phase A: Mixture of water/acetonitrile/(sodium perchlorate monohydrate)/(perchloric acid) (900:100:7:1, V/V/W/V) • Mobile phase B: Mixture of acetonitrile/water/(sodium perchlorate monohydrate)/(perchloric acid) (900:100:7:1, V/V/W/V) • Column: Stainless steel tube having an inner diameter of 4.6 mm and a length of 15 cm, charged with 3-μm octadecylsilylated silica gel for liquid chromatography • Column temperature: Constant temperature around 40° C.

CC#C[C@H](C)Oc1cc(N)c(Cl)cc1C(=O)NC1CC2CCC(C1)N2C (stereo partly drawn) [the active ingredient, 4-amino-5-chloro-N-[(1R,3r,5S)-8-methyl-8-azabicyclo[3.2.1]oct-3-yl]-2-[(1S)-1-methylbut-2-ynyloxy]benzamide]
Decomposition on storage, in words (compared within additive class or with control): no decomposition product | Amount of main decomposition product at RRT = 1.37 (%) (active ingredient admixed with additive (additive rate 100, 50 or 15 to the active ingredient), lid open, HPLC external standard method): 0.00% | Residual ratio of content (%) (active ingredient admixed with additive, lid open, content after/before storage x100): 99.6% | Total amount of decomposition products (%) (active ingredient admixed with additive, lid open, sum of individual decomposition products): 0.00%
